Data on 41 molecules can be found in PubChem BioAssay AID1996.

≈ marks a conversion by molar mass, not a printed value.

For the series the following is noted: buffer; pH 7.4; 200.0 µM.
As usually defined, the solubility (kinetic) is solubility judged after dilution from a stock solution rather than from solid. Turning to `c1csc(-c2noc(CN3CCOCC3)n2)c1`, the kinetic solubility came to 36.6 µg/mL (≈ 146 µM). Consider `O=C(O)Cn1c(Cc2ccccc2)nc2ccccc21`, for which the kinetic solubility came to 22.4 µg/mL (≈ 84.1 µM). Compared with the last molecule, the solubility kinetic is about 1.6-fold lower. In turn, `CCSc1nc2sc3c(c2c(=O)n1-c1ccc(C)cc1)CCN(C)C3` gave a kinetic solubility of 35.6 µg/mL (≈ 95.8 µM). For the molecule `O=C(COC(=O)C1CC2CCCC(C1)C2=O)Nc1ccccc1` (stereo unspecified), the kinetic solubility amounted to 46.5 µg/mL (≈ 147 µM).

As to `O=C(CSc1ncccn1)NC(=O)NCc1ccco1`, the kinetic solubility was 40.8 µg/mL (≈ 140 µM). In turn, `CC1(C)CCc2cc(-c3ccnc(=S)[nH]3)ccc2O1` came in with a solubility (kinetic) of 8.5 µg/mL (≈ 31.2 µM).

`CN(C)C(C(=O)Nc1cc(Cl)cc(Cl)c1)c1ccccc1` (stereo unspecified) came in with a solubility (kinetic) of 19.2 µg/mL (≈ 59.4 µM). `CCC(C)[C@H](NC(=O)NCCCOC(C)C)C(=O)OC` (stereo partly specified) had a solubility (kinetic) of over 43.3 µg/mL. Take `O=C(COc1ccc2ccc(=O)oc2c1)Nc1nccs1`: the solubility (kinetic) came out at 11.3 µg/mL (≈ 37.4 µM). On to `O=C(COC(=O)c1cnc(Cl)c(Cl)c1)NC1CC1`, for which the kinetic solubility was over 43.4 µg/mL. For `Cc1ccc(S(=O)(=O)N2CCOCC2)cc1NC(=O)COC(=O)Cc1ccc(Cl)cc1` the value was 18.7 µg/mL (≈ 40 µM); for `O=C(Cc1ccccc1)NC1CCSc2ccccc21` (stereo unspecified), 11.7 µg/mL (≈ 41.3 µM); for `Cn1c(O)c(C=Nc2ccc(Br)cc2)sc1=O`, under 0.3 µg/mL. For `O=c1oc2ccccc2c(CNc2ccccc2)c1[N+](=O)[O-]` the value was 3.1 µg/mL (≈ 10.5 µM); for `CC(C)N(Cc1ccccc1)C(=S)Nc1cccnc1`, over 42.8 µg/mL.

With `CC(C)NC(=O)c1ccc2c(=O)n(CC3CCCO3)c(=S)[nH]c2c1` (stereo unspecified), the kinetic solubility is 4.4 µg/mL (≈ 12.7 µM). In the case of `COCCCNC(=O)c1cc(S(=O)(=O)NCCCN2CCCC2=O)ccc1Cl`, the solubility (kinetic) was over 64.8 µg/mL. As to `CN(CCc1ccccc1)Cc1c[nH]c2ccccc12.O=C(O)C(=O)O`, the solubility (kinetic) was over 53.2 µg/mL. The same measure for `N/C(=N\OC(=O)c1cccs1)c1cccnc1`: 33.1 µg/mL (≈ 134 µM). The same measure for `Cc1nnc(SCCCCSc2nnc(C)c(=O)[nH]2)[nH]c1=O`: over 51.1 µg/mL; for `CCOC(=O)c1ccc(NC(=O)c2ccc[n+]([O-])c2)cc1`: over 42.9 µg/mL; for `Cc1c(S(=O)(=O)NCc2ccccc2)c(=O)n(C)c(=O)n1C`: over 48.5 µg/mL.

`CC(C)(C)N(Cc1ccccc1)C(=O)c1cccs1` yielded a kinetic solubility of 1.7 µg/mL (≈ 6.22 µM). The same measure for `O=C(NCc1ccccc1Cl)C1CC(=O)N(Cc2ccccc2)C1` (stereo unspecified): over 51.4 µg/mL.

In the case of `CC(=O)NC(CSc1cc(C)nc2ccc(Br)cc12)C(=O)O` (stereo unspecified), the kinetic solubility stood at 57.2 µg/mL (≈ 149 µM).

In the case of `Cc1ccc(NS(=O)(=O)c2ccc3[nH]c(=O)[nH]c3c2)cc1`, the kinetic solubility turned out to be 5.4 µg/mL (≈ 17.8 µM).

As for `CCNC(=S)Nc1sc2c(c1C#N)CCC(C)C2` (stereo unspecified), the solubility (kinetic) amounted to 1.1 µg/mL (≈ 3.94 µM).

Molecule `O=C(CCCc1ccccc1)Nc1ccccc1C(F)(F)F` came in with a kinetic solubility of 5.1 µg/mL (≈ 16.6 µM). On to `Cc1[nH]c2ccc(Br)cc2c(=S)c1C/C=C/Cl`, for which the solubility (kinetic) amounted to 5.3 µg/mL (≈ 16.1 µM). For `CC(C)(C)Sc1ccc([N+](=O)[O-])cc1C(=O)Nc1ccncc1`, the solubility (kinetic) was over 49.7 µg/mL. As to `COc1cccc(C(=O)NCCCNC(=O)c2ccco2)c1`, the solubility (kinetic) was determined as 40.8 µg/mL (≈ 135 µM). Turning to `Cc1ccc(OCC(=O)Nc2ccc3oc(=O)ccc3c2)cc1C`, the kinetic solubility was under 0.7 µg/mL. Regarding `CCOc1ccc(NC(=O)CSc2ncn[nH]2)cc1`, the solubility (kinetic) is over 41.7 µg/mL. For `Cc1ccccc1C(=O)Nc1scc(-c2ccc(Br)cc2)c1C(=O)O` the value was 3.5 µg/mL (≈ 8.41 µM).

In the case of `Cc1ccc(-n2c(C)cc(C(=O)OCC(=O)N3CCOCC3)c2C)cc1`, the solubility (kinetic) is over 53.5 µg/mL.

Turning to `CCOc1ccc(C2NC(=O)c3ccccc3O2)cc1OCC` (stereo unspecified), the kinetic solubility amounted to 13.8 µg/mL (≈ 44 µM). In the case of `CCc1nc2sc(C(=O)O)c(N)c2c2c1CCCC2`, the solubility (kinetic) was over 41.5 µg/mL. The same measure for `O=S(=O)(Nc1ccc(Br)cn1)c1ccc2ccccc2c1`: 1.3 µg/mL (≈ 3.58 µM); for `CC(OC(=O)c1cccn1C)C(=O)Nc1ccc2c(c1)OCO2` (stereo unspecified): 22.5 µg/mL (≈ 71.1 µM); for `Cc1ccccc1-c1nc(S(=O)(=O)c2ccccc2)c(NCCCN2CCOCC2)o1`: 44.9 µg/mL (≈ 102 µM). As for `CC1CN(C(=O)NCc2ccccc2)c2cc(Cl)ccc2O1` (stereo unspecified), the solubility (kinetic) was 6.3 µg/mL (≈ 19.9 µM).
